The values that follow come from PMC8658794, “Design, Synthesis, and Biological Evaluation of HDAC Degraders with CRBN E3 Ligase Ligands” (Molecules, 2021).

Where two headings read alike, the source gives them in different places.

For experiment [1], the target named is T1, HDAC1 (Homo sapiens, UniProt Q13547). The experiment in a line: In vitro HDAC inhibition assay (fluorogenic substrate), HDAC1. Type of experiment: biochemical. The conditions noted are these: recombinant human HDAC1; mean ± SD of three independent determinations. More on the design: All three full-length rhHDACs were expressed in insect High5 cells using a baculoviral expression system; His6; GST; made in house; host or cells: insect High5 cells (baculovirus). Here is the method:
(§1) All three full-length rhHDACs were expressed in insect High5 cells using a baculoviral expression system, and all the His6-tagged and GST-fusion proteins were purified using Ni-NTA (QIAGEN). […] In brief, the HDAC assay mixture contained an HDAC substrate (5–50 μM, 5 μl), rhHDAC isoforms (20–200 nM) and an inhibitor (1 μl). The positive controls contained all the above components except the inhibitor. The negative controls contained neither an enzyme nor an inhibitor. The HDAC6 assay components were incubated at room temperature for 3 h, and HDAC 1 and 3 were incubated for 24 h. […] The plates were incubated for 30 min at room temperature to allow the fluorescence signal to develop.

Experiment [2] has as its target T2, HDAC6 (Homo sapiens, UniProt Q9UBN7).
T2 sequence (Q9UBN7 1-1215): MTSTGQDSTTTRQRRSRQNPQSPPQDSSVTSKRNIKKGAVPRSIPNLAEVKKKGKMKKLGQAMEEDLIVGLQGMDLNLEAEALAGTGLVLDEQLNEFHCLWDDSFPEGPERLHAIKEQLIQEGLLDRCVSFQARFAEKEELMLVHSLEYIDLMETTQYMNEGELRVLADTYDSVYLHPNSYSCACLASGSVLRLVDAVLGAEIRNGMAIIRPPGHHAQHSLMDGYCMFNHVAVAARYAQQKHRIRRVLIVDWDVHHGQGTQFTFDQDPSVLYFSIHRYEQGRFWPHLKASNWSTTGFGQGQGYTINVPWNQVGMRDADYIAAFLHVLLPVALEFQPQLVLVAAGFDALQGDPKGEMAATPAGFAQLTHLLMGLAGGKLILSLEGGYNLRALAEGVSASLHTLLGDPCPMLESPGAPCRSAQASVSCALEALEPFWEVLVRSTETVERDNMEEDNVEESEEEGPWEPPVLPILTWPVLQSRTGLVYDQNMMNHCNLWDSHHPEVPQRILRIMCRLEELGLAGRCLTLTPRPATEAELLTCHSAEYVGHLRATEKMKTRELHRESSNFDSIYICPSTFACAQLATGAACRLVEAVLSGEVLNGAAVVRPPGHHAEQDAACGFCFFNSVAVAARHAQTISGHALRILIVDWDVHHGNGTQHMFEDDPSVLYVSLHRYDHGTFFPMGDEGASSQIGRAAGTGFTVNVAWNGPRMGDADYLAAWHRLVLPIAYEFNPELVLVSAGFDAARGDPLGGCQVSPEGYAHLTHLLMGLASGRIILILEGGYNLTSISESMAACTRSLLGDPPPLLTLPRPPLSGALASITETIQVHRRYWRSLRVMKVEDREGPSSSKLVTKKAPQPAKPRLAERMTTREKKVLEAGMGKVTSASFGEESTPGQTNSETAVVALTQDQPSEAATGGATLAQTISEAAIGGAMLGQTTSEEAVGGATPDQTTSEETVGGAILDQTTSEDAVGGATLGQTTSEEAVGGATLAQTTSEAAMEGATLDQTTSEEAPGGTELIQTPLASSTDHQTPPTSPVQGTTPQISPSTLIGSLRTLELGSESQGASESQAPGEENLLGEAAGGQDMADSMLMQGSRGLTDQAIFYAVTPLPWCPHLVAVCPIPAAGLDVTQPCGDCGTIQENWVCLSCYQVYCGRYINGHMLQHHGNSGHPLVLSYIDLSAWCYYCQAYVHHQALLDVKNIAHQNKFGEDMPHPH
The experiment in a line: In vitro HDAC inhibition assay (fluorogenic substrate), HDAC6. Type of experiment: biochemical. More on the design: All three full-length rhHDACs were expressed in insect High5 cells using a baculoviral expression system; His6; GST; made in house; host or cells: insect High5 cells (baculovirus). Particulars: recombinant human HDAC6; mean ± SD of three independent determinations. Here is the method:
as §1

Experiment [3] concerns the target T3, HDAC3 (Homo sapiens, UniProt O15379). The experiment in a line: In vitro HDAC inhibition assay (fluorogenic substrate), HDAC3. Type of experiment: biochemical. Details: All three full-length rhHDACs were expressed in insect High5 cells using a baculoviral expression system; His6; GST; made in house; host or cells: insect High5 cells (baculovirus). Particulars: recombinant human HDAC3; mean ± SD of three independent determinations. On the procedure: as §1
Target sequence in this assay (O15379 whole entry): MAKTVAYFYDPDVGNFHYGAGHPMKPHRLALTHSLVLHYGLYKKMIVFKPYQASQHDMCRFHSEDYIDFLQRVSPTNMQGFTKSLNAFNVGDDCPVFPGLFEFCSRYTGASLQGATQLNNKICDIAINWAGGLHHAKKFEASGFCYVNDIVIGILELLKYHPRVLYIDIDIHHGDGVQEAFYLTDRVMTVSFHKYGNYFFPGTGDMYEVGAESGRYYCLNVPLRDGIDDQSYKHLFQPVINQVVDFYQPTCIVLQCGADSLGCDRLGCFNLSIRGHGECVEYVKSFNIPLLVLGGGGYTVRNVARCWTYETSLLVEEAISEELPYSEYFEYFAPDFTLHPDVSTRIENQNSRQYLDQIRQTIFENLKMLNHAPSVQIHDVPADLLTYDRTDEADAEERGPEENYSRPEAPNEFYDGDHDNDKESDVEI
Target sequence in this assay (Q9Y618 395-489 partner limits assumed): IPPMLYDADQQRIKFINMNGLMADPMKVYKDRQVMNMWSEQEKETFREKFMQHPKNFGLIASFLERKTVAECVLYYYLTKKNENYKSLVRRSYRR

The test system of experiment [4] is MM.1S cell line. The experiment in a line: In vitro anti-proliferative activity, MTS assay. Type of experiment: cell-based. The conditions noted are these: for IC50: Homo sapiens, MM1.S. On the procedure:
The cells were seeded in 96 well plates at a proper density in growth media. After 24 h, a range of concentrations of the test compounds was added and the plates were incubated at 37 °C for 72 h. The cell proliferation was determined by the MTS assay. After 3 h, the absorbance was collected using SpectraMAX 340. The IC50 values were calculated by fitting a concentration–response curve using a SoftMax pro-based four-parameter method.
A general note: Formazan colour is commonly taken as a measure of viable cells.

In experiment [5] the target is T1, HDAC1. The experiment in a line: Western blot of HDAC1 protein level (degradation) in MM.1S cells. Type of experiment: cell-based. Details: endogenous in cells; host or cells: MM.1S. The conditions noted are these: 3 h, different concentrations. On the procedure:
(§2) The 2 × 10^6 MM.1S cells (multiple myeloma) were cultured in a cell culture plate and incubated for 1 h. Next, the MM.1S cells were treated with compounds at different concentrations for 3 h. Subsequently, the cells were collected, washed, lysed in a Ripa buffer containing a sample reducing agent, and analyzed using SDS/PAGE. Finally, the gel was blotted and the total HDAC levels were detected through standard Western blot.
In general terms: Immunoblotting shows a protein as a band on a membrane.

In experiment [6] the target is T2, HDAC6. The experiment in a line: Western blot of HDAC6 protein level (degradation) in MM.1S cells. Type of experiment: cell-based. Details: endogenous in cells; host or cells: MM.1S. Particulars: 3 h; for degradation of HDAC6 (immunoblot): different concentrations. Here is the method:
as §2

The target in experiment [7] is T3, HDAC3. The experiment in a line: Western blot of HDAC3 protein level (degradation) in MM.1S cells. Type of experiment: cell-based. Details: endogenous in cells; host or cells: MM.1S. The conditions noted are these: 3 h, different concentrations. Here is the method:
as §2
Target sequence in this assay (O15379 whole entry): as the sequence (O15379 whole entry) above

Experiment [8] relates to tubulin acetylation. The experiment in a line: Tubulin acetylation in MM.1S cells. Type of experiment: cell-based.
The mark [9] stands for this setting: MM.1S, 72 h, MTS, mean ± SD of three independent determinations, read-out: IC50 (μM ± SD) anti-proliferative activity against MM.1S cell line.

Broadly, the IC50 is the concentration at which inhibition is half-maximal.

T1 sequence (Q13547 whole entry, the tested form may be a part, canonical isoform): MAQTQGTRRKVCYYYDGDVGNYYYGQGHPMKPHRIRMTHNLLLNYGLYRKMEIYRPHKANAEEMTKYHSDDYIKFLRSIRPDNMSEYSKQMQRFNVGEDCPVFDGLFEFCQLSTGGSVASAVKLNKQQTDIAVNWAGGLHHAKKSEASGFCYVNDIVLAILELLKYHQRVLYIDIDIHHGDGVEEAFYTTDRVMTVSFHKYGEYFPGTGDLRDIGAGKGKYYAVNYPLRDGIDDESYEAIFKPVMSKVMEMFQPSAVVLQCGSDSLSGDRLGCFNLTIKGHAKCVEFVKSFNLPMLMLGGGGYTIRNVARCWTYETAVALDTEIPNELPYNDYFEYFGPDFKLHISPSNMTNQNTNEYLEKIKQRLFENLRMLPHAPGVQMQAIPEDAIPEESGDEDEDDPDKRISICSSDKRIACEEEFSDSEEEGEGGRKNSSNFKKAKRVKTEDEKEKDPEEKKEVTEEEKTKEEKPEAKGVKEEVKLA

As for `O=C(CCCCCC(=O)Nc1cccc2c1CN(C1CCC(=O)NC1=O)C2=O)NO` (stereo not drawn) [9a, N^1-(2-(2,6-Dioxopiperidin-3-yl)-1-oxoisoindolin-4-yl)-N^7-hydroxyheptanediamide], the IC50 in experiment [1] was found to be 2.31 ± 0.46 µM; in experiment [2] it was 1.98 ± 0.69 µM; in experiment [3], 2.2 ± 0.29 µM.

`O=C(CCCCCNC(=O)Nc1cccc2c1C(=O)N(C1CCC(=O)NC1=O)C2=O)NO` (stereo not drawn) [15d, 6-(3-(2-(2,6-Dioxopiperidin-3-yl)-1,3-dioxoisoindolin-4-yl)ureido)-N-hydroxyhexanamide]: the IC50 in experiment [4] (setting [9]) is above 10 µM; in experiment [1] it was 0.44 ± 0.1 µM; in experiment [2], 5.28 ± 1.42 µM; in experiment [3] it was 0.22 ± 0.02 µM.

Take `O=C(CCCCCCC(=O)Nc1cccc2c1C(=O)N(C1CCC(=O)NC1=O)C2=O)NO` (stereo not drawn) [9e, N^1-(2-(2,6-Dioxopiperidin-3-yl)-1,3-dioxoisoindolin-4-yl)-N^8-hydroxyoctanediamide]: the IC50 in experiment [4] (setting [9]) was above 10 µM; in experiment [1], 2.7 ± 0.36 µM; in experiment [2] it was 0.42 ± 0.18 µM; in experiment [3], 0.33 ± 0.01 µM.

On to `O=C(CCCCCCCC(=O)Nc1cccc2c1CN(C1CCC(=O)NC1=O)C2=O)NO` (stereo not drawn) [9c, N^1-(2-(2,6-Dioxopiperidin-3-yl)-1-oxoisoindolin-4-yl)-N^9-hydroxynonanediamide], for which the values for the IC50 in experiment [1], in experiment [2] and in experiment [3] were 1.13 ± 0.03 µM, 3.67 ± 1.02 µM and 1.06 ± 0.2 µM, respectively.

For `O=C(CCCCCCC(=O)Nc1cccc2c1CN(C1CCC(=O)NC1=O)C2=O)NO` (stereo not drawn) [9b, N^1-(2-(2,6-Dioxopiperidin-3-yl)-1-oxoisoindolin-4-yl)-N^8-hydroxyoctanediamide], the IC50 in experiment [4] (setting [9]) is above 10 µM; in experiment [1] it was 0.38 ± 0.14 µM; in experiment [2], 1.46 ± 1.02 µM; in experiment [3] it was 0.47 ± 0.01 µM.

For the compound `Nc1ccccc1NC(=O)c1ccc(COc2cccc3c2C(=O)N(C2CCC(=O)NC2=O)C3=O)cc1` (stereo not drawn) [21b, N-(2-Aminophenyl)-4-(((2-(2,6-dioxopiperidin-3-yl)-1,3-dioxoisoindolin-4-yl)oxy)methyl)benzamide], the “degradation of HDAC1 (immunoblot)” value in experiment [5] is “almost no degradation”. Further, the IC50 in experiment [4] (setting [9]) was 0.541 ± 0.108 µM; in experiment [1], 1.2 ± 0.44 µM; in experiment [2], above 20 µM; in experiment [3], 0.28 ± 0.04 µM. Moreover, in experiment [6], the “degradation of HDAC6 (immunoblot)” value was “almost no degradation”. The “degradation of HDAC3 (immunoblot)” value in experiment [7] is “almost no degradation”.

`O=C1CCC(N2Cc3c(OCc4ccc(C(=O)NO)cc4)cccc3C2=O)C(=O)N1` (stereo not drawn) [23a, 4-(((2-(2,6-Dioxopiperidin-3-yl)-1-oxoisoindolin-4-yl)oxy)methyl)-N-hydroxybenzamide]: the IC50 is above 10 µM in experiment [4] (setting [9]), 8.32 ± 2.1 µM in experiment [1], 0.38 ± 0.1 µM in experiment [2] and 0.65 ± 0.03 µM in experiment [3].

With `O=C(CCCCCCCCNC(=O)Nc1cccc2c1CN(C1CCC(=O)NC1=O)C2=O)NO` (stereo not drawn) [15c, 9-(3-(2-(2,6-Dioxopiperidin-3-yl)-1-oxoisoindolin-4-yl)ureido)-N-hydroxynonanamide], the IC50 in experiment [1] came out at 0.82 ± 0.06 µM; in experiment [2] it was 3.09 ± 0.54 µM; in experiment [3], 0.96 ± 0.13 µM.

For the compound `O=C(CCCCCNC(=O)Nc1cccc2c1CN(C1CCC(=O)NC1=O)C2=O)NO` (stereo not drawn) [15a, 6-(3-(2-(2,6-Dioxopiperidin-3-yl)-1-oxoisoindolin-4-yl)ureido)-N-hydroxyhexanamide], the IC50 in experiment [4] (setting [9]) is above 10 µM; in experiment [2] it was 5.96 ± 1.43 µM; in experiment [3], 0.27 ± 0.04 µM.

Consider `O=C(CCCCCCCCC(=O)Nc1cccc2c1CN(C1CCC(=O)NC1=O)C2=O)NO` (stereo not drawn) [9d, N^1-(2-(2,6-Dioxopiperidin-3-yl)-1-oxoisoindolin-4-yl)-N^10-hydroxydecanediamide], for which the results for the IC50 in experiment [1], in experiment [2] and in experiment [3] were 0.72 ± 0.18 µM, 2.94 ± 0.62 µM and 0.75 ± 0.06 µM, respectively.

In the case of `O=C1CCC(N2C(=O)c3cccc(OCc4ccc(C(=O)NO)cc4)c3C2=O)C(=O)N1` (stereo not drawn) [23b, 4-(((2-(2,6-Dioxopiperidin-3-yl)-1,3-dioxoisoindolin-4-yl)oxy)methyl)-N-hydroxybenzamide], in experiment [5], the “degradation of HDAC1 (immunoblot)” value is listed as “almost no degradation”. In addition, the IC50 in experiment [4] (setting [9]) was 1.34 ± 0.4 µM; in experiment [1], 2.23 ± 0.3 µM; in experiment [2], above 20 µM; in experiment [3], 0.76 ± 0.1 µM. Further, the “degradation of HDAC6 (immunoblot)” value in experiment [6] is given as “almost no degradation”. Further, the “degradation of HDAC3 (immunoblot)” value in experiment [7] is reported as “almost no degradation”.

Take `O=C(CCCCCCNC(=O)Nc1cccc2c1CN(C1CCC(=O)NC1=O)C2=O)NO` (stereo not drawn) [15b, 7-(3-(2-(2,6-Dioxopiperidin-3-yl)-1-oxoisoindolin-4-yl)ureido)-N-hydroxyheptanamide]: the IC50 was 0.57 ± 0.04 µM in experiment [1], 1.67 ± 0.41 µM in experiment [2] and 0.58 ± 0.04 µM in experiment [3].

For the compound `Nc1ccccc1NC(=O)c1ccc(COc2cccc3c2CN(C2CCC(=O)NC2=O)C3=O)cc1` (stereo not drawn) [21a, N-(2-Aminophenyl)-4-(((2-(2,6-dioxopiperidin-3-yl)-1-oxoisoindolin-4-yl)oxy)methyl)benzamide], the IC50 in experiment [4] (MM.1S cells, printed beside the HDAC6 immunoblot, read-out: IC50 printed in the picture of Figure 4B) is 0.04 µM; in experiment [4] (setting [9]) it was 0.043 ± 0.02 µM; in experiment [1], 1.6 ± 0.54 µM; in experiment [2] it was above 20 µM; in experiment [3], 0.56 ± 0.02 µM. The “anti-proliferative potency relative to SAHA” value in experiment [4] (MM.1S cell line) is listed as “approximately five times more potent”. Also, the “HDAC6 degradation compared with HDAC1 and HDAC3 (immunoblot)” value in experiment [6] (0.12 μM) is “superior HDAC6 degradation efficacies”. In addition, the “degradation of HDAC6 (immunoblot)” value in experiment [6] is “dose-dependent manner”. Further, in experiment [8], the “increase in tubulin acetylation” value is on record as “not observed”.
